Results on one sequence are retold here after PMC9774128, “New Insights into the Mechanism of Antibacterial Action of Synthetic Peptide Mo-CBP3-PepI against Klebsiella pneumoniae” (Antibiotics, 2022).

One may read the MIC50 as an inhibitory concentration at the 50% level, which refers to growth in some studies and to a panel of isolates in others.

The subject of test [1] is K. pneumoniae cells. The test can be described thus: Cell viability by MTT assay, planktonic cells. The test is classed as cell-based, Klebsiella pneumoniae. The note with it: peptide at MIC50 31.25 μg mL^−1 (Table 1; method says 1 mg mL^−1), MTT 3 h, 37 °C, absorbance 495 nm. The method, then: The cell viability assay was performed as described by Lima et al., with some adjustments. After the antibacterial assay was completed as described by Oliveira et al., the wells containing the treated cells with Mo-CBP3-PepI at 1 mg mL^−1 and control cells (50 µL) were incubated for 3 h in the dark at 37 °C with 50 µL of 3-(4,5-dimethylthiazol-2-yl)-2,5-diphenyltetrazolium bromide (2 mg mL^−1, MTT). After incubation, 100 µL of 100% DMSO was added to the wells, and the plate was slowly shaken to dissolve the formazan crystals. The absorbance was measured using a microplate reader (Epoch, BioTek) with a wavelength of 495 nm. The controls used for this assay were 5% of dimethyl sulfoxide (DMSO) prepared in 0.15 M NaCl (saline) solution and ciprofloxacin (1000 µg mL^−1) prepared in 5% ethanol in sterile saline solution.
On the technique in general: Tetrazolium dyes change colour on reduction, which living cells bring about.

For another test, the system named is K. pneumoniae biofilm. The experiment in a line: Antibiofilm assay: inhibition of biofilm formation, crystal violet. The test is classed as cell-based, Klebsiella pneumoniae. The note with it: peptide 31.25 μg mL^−1; 48 h, 37 °C; crystal violet O.D. 600 nm; triplicate, three independent experiments. As to the method: The antibiofilm assay was conducted in flat-bottom 96-well polystyrene microplates as described by Neto et al.. A single colony of K. pneumoniae was collected in stock Petri plates containing inoculated Mueller–Hinton agar. The colony was used as inoculum for 5 mL of Mueller–Hinton broth, and the media was incubated for 24 h in the dark at 37 °C. In sequence, the O.D. of the cell suspension was measured using a microplate reader (Epoch, BioTek) and adjusted to 0.1 at 630 nm with Mueller–Hinton broth. For the inhibition of biofilm formation, 50 µL of the cell ([…]) suspension was incubated with 50 µL of the peptide (31.25 μg mL^−1) solution and 50 µL of the respective controls described above. The incubation lasted for 48 h at 37 °C. For the biofilm degradation assay, 50 µL of the cell suspension was incubated for 24 h at 37 °C. After this, 50 µL of the peptide solution and the respective controls were added to the wells containing the preformed biofilm and incubated for 24 h at 37 °C.
After incubation, both wells of biofilm formation inhibition and biofilm degradation were washed once with a sterile saline solution. Then, the wells were fixated with 100 µL methanol 99% for 15 min. […] Then, the crystals stained on the biofilm were diluted with 200 µL of 33% acetic acid, and the O.D was measured using a wavelength of 600 nm. […]

The test system of test [2] is K. pneumoniae cell membrane. The test can be described thus: Cell membrane integrity by propidium iodide uptake. The note with it: peptide 31.25 µg mL^−1, 24 h. The test is classed as cell-based, Klebsiella pneumoniae. The method, then:
The assay was conducted as described by Oliveira et al., with some modifications. Preparation of cell suspension was completed as mentioned above. After, 50 µL of the diluted bacteria solution was incubated in the dark for 24 h, at 37 °C, with 50 µL of the peptide solution (31.25 µg mL^−1) previously prepared with 5% of dimethyl sulfoxide (DMSO) diluted in 0.15 M NaCl solution. The assay was conducted in 1.5 mL microtubes. The diluted bacteria solution was incubated only with the DMSO-NaCl solution for control. After incubation, the microtubes were centrifuged (5000× g, 5 min, 4 °C) and washed three times. Next, the washed cells were incubated with 1 µM propidium iodide for 30 min, in the dark, at 37 °C. After this, the cells were washed two times with saline solution to remove the excess fluorophore and observed with a fluorescence microscope (Olympus System BX 60; excitation wavelength, 488 nm; emission wavelength, […]).

In test [3] the test system is K. pneumoniae cells. The experiment in a line: ROS overproduction (DCFH-DA fluorescence microscopy). The test is classed as cell-based, Klebsiella pneumoniae. The note with it: peptide 31.25 µg mL^−1, 24 h, 1 mM DCFH-DA 30 min. The method, then:
This assay was conducted in the same way as above but with a few differences. The preparation of cell suspension and the antimicrobial assay was performed in the same way described above. After the three rounds of centrifugation and washes, the cells were incubated with 1 mM 2,7-dichlorofluorescein diacetate (DCFH-DA) for 30 min, in the dark, at 37 °C. After the washes, the cells were also observed under a fluorescence microscope (Olympus System BX60; excitation wavelength, 488 nm; emission wavelength, 525 nm).

In test [4] the test system is K. pneumoniae (ATCC 10031). Also on record: method as in PMID 30389515. As to conditions: against K. pneumoniae; cited from earlier work.
The next test relates to C. albicans cells. As to conditions: cited from earlier work. The text has this:
To answer the second question, it is necessary to understand an essential characteristic of antimicrobial peptides, self-association. Self-association is the ability of antimicrobial peptides to interact during the insertion into the membrane, allowing the formation of a huge pore. […] In this model, a peptide interacts with lipids in the membrane, as described above, to perform the insertion into the membrane. Then, the peptide molecules interact between them to form a huge por ...

On to CPAIQRCC [Mo-CBP3-PepI], for which, in the test with K. pneumoniae cells [1], the “Cell Viability (%)” value was determined as 47.54 ± 0.008%. Moreover, the “Inhibition of Biofilm Formation (%)” value in the test on K. pneumoniae biofilm came out at 11.87 ± 0.001%. Moreover, the “pore size indicated by movement of PI” value in test [2] was determined as 692.50 Da. In addition, the “membrane pore formation (PI uptake)” value in test [2] (37 °C, 1 µM PI 30 min, fluorescence microscopy) was “induced the pore formation”. Besides, the ROS overproduction result in the test on K. pneumoniae cells [3] was “slight accumulation of ROS”. Besides, the MIC50 in test [4] was 31.25 µg/mL. For the same sequence, the pore size in the test with C. albicans cells is 10 kDa.
